Assay [1] deals with T1, CaFLS (Camellia sinensis, UniProt A0A3G1RNB1).
T1 construct: gene FLS; synthetic gene in pET-28a(+) (NcoI/XhoI), expressed in E. coli BL21(DE3); 331 residues; mutants carry fragments of AnFNS I
The experiment in a line: UPLC-MS product formation, Lineweaver-Burk. Format: biochemical. Particulars: tamarixetin formation (main product); Tris-HCl pH 7.5, 23 °C. The source says:
(§1) UPLC-MS product formation, Lineweaver-Burk on CaFLS

Assay [2] concerns the target T1, CaFLS. Nature of the assay: UPLC-MS product formation, Lineweaver-Burk. It counts as biochemical. To be noted: Tris-HCl pH 7.5, 23 °C.
Text: as §1

T1 sequence (A0A3G1RNB1 entry or part of it): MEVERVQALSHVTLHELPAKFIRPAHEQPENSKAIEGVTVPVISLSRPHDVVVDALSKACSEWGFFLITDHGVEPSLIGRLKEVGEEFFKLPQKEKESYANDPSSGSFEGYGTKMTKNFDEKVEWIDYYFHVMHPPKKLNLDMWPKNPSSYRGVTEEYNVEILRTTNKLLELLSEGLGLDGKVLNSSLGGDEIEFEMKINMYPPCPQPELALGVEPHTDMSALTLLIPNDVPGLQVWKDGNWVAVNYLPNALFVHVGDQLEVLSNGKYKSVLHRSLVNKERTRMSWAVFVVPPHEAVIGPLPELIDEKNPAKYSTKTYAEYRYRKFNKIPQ

As usually defined, the Km is the concentration of substrate that gives half-maximal velocity. In the case of `COc1ccc([C@@H]2CC(=O)c3c(O)cc(O)cc3O2)cc1O` [hesperetin], the Km is 68.5 µM at CaFLS [1], 65.4 µM on CaFLS [2] (diosmetin formation (main product)) and 66.4 µM at CaFLS [2] (tamarixetin formation (main product)).

Source of the values: publication PMC9213739, “Substrates and Loaded Iron Ions Relative Position Influence the Catalytic Characteristics of the Metalloenzymes Angelica archangelica Flavone Synthase I and Camellia sinensis Flavonol Synthase” (Frontiers in Pharmacology, 2022).
